{
  "source": "patent US7851436B2",
  "about": "“Inhibition of migration and induction of cell death by the type II collagen amino propeptides” (Washington University, priority 2007, dated 2010)",
  "key": {"αVβ3 integrin": {"target": "T1, αVβ3 integrin (Homo sapiens, UniProt P05106+P06756)", "T1 construct": "Ch-1 membrane proteins were labeled with biotin, and PIIBNP was used to isolate the integrin molecules; endogenous in cells; host or cells: Ch-1 human chondrosarcoma cells (surface-biotinylated, lysed)", "T1 sequence (P06756 31-889 limits assumed)": "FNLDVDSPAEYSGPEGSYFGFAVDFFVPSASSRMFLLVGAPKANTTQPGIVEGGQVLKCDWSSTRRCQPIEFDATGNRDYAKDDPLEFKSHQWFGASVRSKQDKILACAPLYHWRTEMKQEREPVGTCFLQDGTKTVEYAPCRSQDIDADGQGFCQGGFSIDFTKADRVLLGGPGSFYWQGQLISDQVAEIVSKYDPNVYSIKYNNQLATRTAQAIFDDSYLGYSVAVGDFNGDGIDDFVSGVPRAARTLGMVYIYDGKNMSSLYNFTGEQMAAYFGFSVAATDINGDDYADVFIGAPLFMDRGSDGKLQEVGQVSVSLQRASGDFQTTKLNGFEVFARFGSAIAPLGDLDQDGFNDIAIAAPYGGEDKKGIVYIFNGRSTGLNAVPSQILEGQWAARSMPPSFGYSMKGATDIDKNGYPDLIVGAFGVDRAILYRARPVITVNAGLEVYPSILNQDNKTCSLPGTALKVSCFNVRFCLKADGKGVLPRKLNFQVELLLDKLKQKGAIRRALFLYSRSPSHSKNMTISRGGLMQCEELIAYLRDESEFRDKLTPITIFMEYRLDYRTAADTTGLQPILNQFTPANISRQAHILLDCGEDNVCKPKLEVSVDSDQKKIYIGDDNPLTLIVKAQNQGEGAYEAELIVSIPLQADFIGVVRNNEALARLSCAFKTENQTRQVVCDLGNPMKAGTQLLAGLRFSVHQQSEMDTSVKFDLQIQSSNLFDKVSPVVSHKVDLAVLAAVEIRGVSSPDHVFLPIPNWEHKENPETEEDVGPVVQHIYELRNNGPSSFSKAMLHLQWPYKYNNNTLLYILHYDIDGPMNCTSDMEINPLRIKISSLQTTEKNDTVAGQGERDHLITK", "T1 sequence (P06756 891-1048 limits assumed)": "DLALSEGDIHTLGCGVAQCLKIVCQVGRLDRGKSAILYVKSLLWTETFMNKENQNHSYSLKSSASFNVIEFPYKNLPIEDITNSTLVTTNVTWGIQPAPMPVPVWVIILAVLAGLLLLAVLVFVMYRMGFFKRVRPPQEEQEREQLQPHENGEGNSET", "T1 sequence (P05106 27-788)": "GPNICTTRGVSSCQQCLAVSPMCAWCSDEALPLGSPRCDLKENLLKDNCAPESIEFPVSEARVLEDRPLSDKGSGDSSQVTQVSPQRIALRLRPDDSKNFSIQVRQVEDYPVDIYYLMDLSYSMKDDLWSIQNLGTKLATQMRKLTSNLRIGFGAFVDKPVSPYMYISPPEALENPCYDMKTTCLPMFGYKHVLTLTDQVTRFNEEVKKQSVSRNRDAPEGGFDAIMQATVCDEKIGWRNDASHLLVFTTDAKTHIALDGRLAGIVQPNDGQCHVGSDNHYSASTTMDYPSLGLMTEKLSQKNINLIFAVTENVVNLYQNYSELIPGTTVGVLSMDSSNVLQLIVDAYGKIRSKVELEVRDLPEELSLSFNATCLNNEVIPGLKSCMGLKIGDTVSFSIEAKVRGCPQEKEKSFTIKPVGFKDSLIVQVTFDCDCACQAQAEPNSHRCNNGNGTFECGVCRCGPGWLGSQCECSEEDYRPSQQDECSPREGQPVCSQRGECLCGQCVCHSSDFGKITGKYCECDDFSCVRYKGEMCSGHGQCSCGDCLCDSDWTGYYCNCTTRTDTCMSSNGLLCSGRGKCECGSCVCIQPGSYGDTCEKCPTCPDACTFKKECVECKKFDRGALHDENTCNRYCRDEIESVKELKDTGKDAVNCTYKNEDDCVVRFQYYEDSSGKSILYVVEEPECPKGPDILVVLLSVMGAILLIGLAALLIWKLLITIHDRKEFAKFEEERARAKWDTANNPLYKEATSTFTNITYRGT", "assay": "Cell surface labeling and GST pull-down with immunoblotting", "assay_type": "binding", "conditions": "biotin-labeled Ch-1 membrane proteins, Western blot", "protocol": "(§1) Immunoblotting. Western blotting was performed as described (7). Blots were probed with the following primary antibodies: rabbit anti αV, α2, α3, α5, β1, β3, β5 integrin and goat anti actin (Saint Cruz), chicken anti PIIBNP antiserum, and mouse anti exon 2 antiserum.\n(§2) Cell Surface labeling and GST Pull-down Assay. Ch-1 cells were incubated with EZ-link Sulfo-NHS-Biotin reagent for 30 mins. according to the product instruction (Sigma). After 3 washes with 0.1 M glycine in PBS, the cells were lysed with a lysis buffer described above. The lysate was incubated with glutathione derivatized agarose beads previously bound with GST, PIIANP, PIIBNP or mPIIBNP for 1 hr. at RT. […] The membrane was washed and incubated with antibodies and then incubated with a secondary antibody coupled to horseradish peroxidase. The antibody complex was visualized by enhanced chemiluminescence."}, "αVβ5 integrin": {"target": "T2, αVβ5 integrin (Homo sapiens, UniProt P06756+P18084)", "T2 construct": "Ch-1 membrane proteins were labeled with biotin, and PIIBNP was used to isolate the integrin molecules; endogenous in cells; host or cells: Ch-1 human chondrosarcoma cells (surface-biotinylated, lysed)", "T2 sequence (P06756 31-889 limits assumed)": "as the sequence (P06756 31-889 limits assumed) above", "T2 sequence (P06756 891-1048 limits assumed)": "as the sequence (P06756 891-1048 limits assumed) above", "T2 sequence (P18084 24-799)": "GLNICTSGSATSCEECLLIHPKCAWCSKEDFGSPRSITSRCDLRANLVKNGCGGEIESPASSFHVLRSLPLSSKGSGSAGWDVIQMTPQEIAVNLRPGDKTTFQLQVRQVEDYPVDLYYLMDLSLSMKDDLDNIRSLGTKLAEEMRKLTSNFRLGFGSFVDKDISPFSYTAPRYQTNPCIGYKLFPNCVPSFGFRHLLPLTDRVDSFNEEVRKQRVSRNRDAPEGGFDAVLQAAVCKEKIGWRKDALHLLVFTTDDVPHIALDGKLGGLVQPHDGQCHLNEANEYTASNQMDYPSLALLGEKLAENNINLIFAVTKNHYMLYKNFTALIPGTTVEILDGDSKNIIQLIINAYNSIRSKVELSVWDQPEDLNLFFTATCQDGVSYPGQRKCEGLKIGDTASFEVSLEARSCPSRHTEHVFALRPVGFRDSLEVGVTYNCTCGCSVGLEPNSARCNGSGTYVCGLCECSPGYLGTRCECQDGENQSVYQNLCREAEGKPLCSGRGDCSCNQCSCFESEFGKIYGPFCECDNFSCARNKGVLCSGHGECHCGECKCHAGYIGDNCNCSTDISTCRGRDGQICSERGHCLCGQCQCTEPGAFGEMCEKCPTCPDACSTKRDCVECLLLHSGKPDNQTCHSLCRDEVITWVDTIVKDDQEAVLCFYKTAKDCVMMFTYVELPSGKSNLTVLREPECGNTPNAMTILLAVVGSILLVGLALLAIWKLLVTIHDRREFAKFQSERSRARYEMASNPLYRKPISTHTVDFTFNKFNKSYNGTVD", "assay": "Cell surface labeling and GST pull-down with immunoblotting", "assay_type": "binding", "conditions": "biotin-labeled Ch-1 membrane proteins, Western blot", "protocol": "as §1, §2"}, "MDA-MB231 cells": {"test_system": "MDA-MB231 cells", "assay": "Cell survival assay in MDA-MB231 cells", "assay_type": "cell-based, human", "protocol": "Cell Culture. Human Chondrosarcoma cell line (Ch-1) was isolated from a portion of chondrosarcoma tumor. […] HUVEC cells were a gift from Dr. William Frazier (Washington University) and were cultured in M199 Earle's medium with 10 units/ml of penicillin, 5 μg/ml streptomycin and 0.25 μg/ml Fungizone supplemented with 10% FBS, 0.1 mg/ml L-glutamine, 25 mM Hepes, 16 units/ml of heparin (Sigma) and 0.1 mg/ml endothelial cell mitogen (Biochemical Technologies).\n(§3) Detection of Cell Death. Cells were cultured to confluence in a 24-well plate pre-coated with type I collagen, fibronectin (Sigma), and ECM Matrigel (Becton Dickinson). Proteins in serum-free medium were added to the cells. Cells were monitored by light microscopy and images were digitally photographed using a Q capture Retiga 2000R camera. Quantification of cells remaining in the well was performed by washing with PBS for three times, fixing with 4% paraformaldehyde. The cells per field (×400) were counted for three field per well (3 wells per measurement). The mean number and standard deviation (SD) were calculated."}, "siRNA-treated Ch-1 cells": {"test_system": "siRNA-treated Ch-1 cells", "assay": "Cell death in integrin αV siRNA-treated Ch-1 cells", "assay_type": "cell-based, human", "conditions": "0.8 μM, serum-free medium, 24 hrs", "protocol": "as §3\nSiRNA Interference. Ch-1 cells were grown to 60-80% confluence in 6 well plates in Opti-Mem medium (Invitrogen) without antibiotics and serum. A reported method (6) is used in the design of siRNAs, sense and antisense oligonucleotides. The final concentration of oligonucleotides was 0.05 μM. Transfection was performed using a lipofectamine kit (InVitrogen). Half of the wells were stimulated with 200 ng/ml PMA (phorbol 12-myristate 13-acetate) after 4 hours incubation with oligonucleotides. Total RNA was collected via the TriZol method after incubation for 44 hours. 1 μg of total RNA was reverse transcribed with Superscript RT II in a 40 μl volume. […] Bands were quantified with Image Quant software."}, "HUVEC cells [1]": {"test_system": "HUVEC cells", "assay": "Tube formation assay", "assay_type": "cell-based, human", "protocol": "Tube Formation Assay. The tube formation assay using HUVEC cells was performed as described with some modification. Briefly, a suspension of 7.5×10^4 cells/well in complete medium was seeded into a Matrigel-coated 24-well plate in the presence of recombinant PIIBNP or GST (0-10 μM). The formation of tubes was evaluated using light microscopy and quantification was performed using a Q Capture Pro imaging software. Branch points per field were counted from three fields for each treatment."}, "HUVEC cells [2]": {"test_system": "HUVEC cells", "assay": "HUVEC cell death", "assay_type": "cell-based, human", "protocol": "FIG. 6 depicts photographs and graphs showing that PIIBNP inhibits angiogenesis. […] Quantification of tube formation was calculated based on branch points per field of view (FIG. 6C) for each treatment ranging from 0.1 μM to 10 μM of PIIBNP. […] GST (▴) and PIIANP (●) had no effect on the cells.\nAs a second test for angiogenesis, we tested the ability of PIIBNP to inhibit outgrowth of endogenous endothelial cells from freshly isolated rat aorta. […] In order to determine whether PIIBNP caused endothelial cell death, the number of HUVEC cells present after incubation with PIIBNP was determined (FIGS. 6E and 8). Tube formation was inhibited by 50% with 0.1 μM PIIBNP, with no cell death. […] Consequently, PIIBNP can inhibit angiogenesis in a cell line and in endogenous endothelial cells mediated by integrins αVβ3 and αVβ5."}, "rings of rat aorta": {"test_system": "rings of rat aorta", "assay": "Aortic ring formation assay", "protocol": "FIG. 8 depicts a graph and photograph showing rat aortic ring formation. Angiogenesis was assayed by culturing rings of rat aorta in three-dimensional collagen gel. The culture was performed at 37° C. in a humidified environment for a week in the presence FGF and mPIIBNP or PIIBNP (0.1 to 3 mM). The microvessel outgrowth was examined and visualized every second day with an Olympus microscope. The pictures were taken before the measurement of the microvessels. (FIG. 8A) The length of microvessels was measured and total length for each measurement was added (FIG. 8B). PIIBNP inhibited aortic ring formation, with an IC50 of less than 0.1 μM.\nAortic Ring Formation Assay. Angiogenesis was assayed by culturing rings of rat aorta in three-dimensional collagen gels as reported. The cultures were kept at 37° C. in a humidified environment for a week in the presence of FGF and GST or PIIBNP (0.1-10 μM). The microvessel outgrowth was examined every second day with an Olympus microscope. The length of microvessels was measured and total length for each measurement was added."}, "mouse osteoclast cells": {"test_system": "mouse osteoclast cells", "assay": "Osteoclast viability (trypan blue exclusion)", "assay_type": "cell-based", "conditions": "16 hours at 37° C.", "protocol": "FIG. 10 depicts a graph showing mouse chondrogenic cells (ATDC5), mouse osteoblast cells, and mouse osteoclast cells treated with recombinant GST, PIIBNP or mPIIBNP proteins for 16 hours at 37° C. The cells were trypsinized and cell viability was assayed using a trypan blue exclusion based cell counting. PPIIBNP induced death in osteoclasts that resorb the bone, but not the osteoblasts that form bone."}},
  "note": "Entries after “also recorded” stand apart in the source; their conditions may differ.",
  "data": [
    {"substance": "PIIBNP: Recombinant human Type IIB procollagen NH2-propeptide (exons 3-8, lacking exon 2), expressed as GST fusion protein", "values": [
      {"measurement": "binding to integrin αVβ3", "setting": "αVβ3 integrin", "result": "only integrins identified; also recorded: binds"},
      {"measurement": "binding to integrin αVβ5", "setting": "αVβ5 integrin", "result": "only integrins identified; also recorded: binds"},
      {"measurement": "cell survival", "setting": "MDA-MB231 cells; MDA cells", "result": 30, "unit": "%"},
      {"measurement": "cell death", "setting": "MDA-MB231 cells; MDA-MB231 cells, FIG. 4L", "result": "> 70", "unit": "%"},
      {"measurement": "induction of cell death in αV siRNA-treated Ch-1 cells", "setting": "siRNA-treated Ch-1 cells", "result": "not able to induce cell death; also recorded: did not induce cell death"},
      {"measurement": "tube formation inhibited", "setting": "HUVEC cells [1]; 0.1 μM", "result": 50, "unit": "%"},
      {"measurement": "inhibition of tube formation", "setting": "HUVEC cells [1]; Matrigel-coated plates, 0-10 μM", "result": "able to inhibit the formation of tubes in a dose-dependent manner"},
      {"measurement": "HUVEC cell death", "setting": "HUVEC cells [2]; 0.1 μM", "result": "no cell death"},
      {"measurement": "HUVEC cell death", "setting": "HUVEC cells [2]; 60 hrs, 37° C., higher concentrations", "result": "cell death was induced; also recorded: caused cell death in a concentration-dependent manner"},
      {"measurement": "inhibition of endothelial outgrowth from rat aorta", "setting": "rings of rat aorta; freshly isolated rat aorta", "result": "able to inhibit endothelial outgrowth in a concentration dependent manner"},
      {"measurement": "IC50", "setting": "rings of rat aorta; three-dimensional collagen gel, FGF, a week, read-out: IC50 of inhibition of aortic ring formation", "result": "< 100", "unit": "nM"},
      {"measurement": "induction of osteoclast death", "setting": "mouse osteoclast cells; listed as PPIIBNP", "result": "induced death"},
      {"measurement": "induction of osteoclast death", "setting": "mouse osteoclast cells; listed as Type IIB propeptide", "result": "induced the death"}
    ]}
  ]
}
